# Data: US20040192624A1, “Method for treating a disease, disorder or adverse effect caused by an elevated serum concentration of an UGT1A1 substrate” (priority 2003, published 2004)
# Key:
# [1] = Ethinylestradiol pharmacokinetics alone and with ritonavir in healthy female volunteers; format: in vivo, human; details: for t1/2: ethinylestradiol terminal phase, reported as harmonic mean
# Experimental: This was an open-label, single-center study in healthy female volunteers who had not received an oral contraceptive for a minimum of six months prior to study start. Subjects received the first dose of oral contraceptive containing 50 μg of ethinyl estradiol on Day 1. […] On Day 15, 300 mg q12h was administered, 400 mg q12h was given on Day 16, and 500 mg q12h was administered thereafter. […] Blood samples for ethinylestradiol concentrations were collected for 48 h after each of the oral contraceptive doses.
# Ethinylestradiol was supplied as Demulen@ 1/50-21 tablets (G.D. Searle & Co.) containing 50 μg of ethinylestradiol and 1 mg of ethynodiol diacetate and was administered at 8:00 a.m. on Day 1 and Day 29 with approximately 240 mL of water and within 15 minutes of a meal or snack.
# Subjects were confined for 64 hours from Day -1 (day prior to the initial dose) through the first 48 hour blood collection (morning of Day 3) and for 64 hours from Day 28 through the second 48 hour blood collection (morning of Day 31). In addition, subjects came to the clinical testing unit as outpatients for meals, dosing and other study activities twice daily for a total of 14 consecutive days, starting on Day 15. Strenuous activity during confinement was not permitted. During confinement, subjects abstained from all food and beverages except for the scheduled meals and snacks provided in the study. Water was available ad libitum. All meals were standardized with regard to content during confinement. Breakfast, lunch, and dinner were served at approximately 7:30 a.m., 1:00 p.m. and 7:30 p.m. and snacks were provided at approximately 10:00 p.m., except on Days-1 and 28 when the snack was served at 9:45 p.m. An 8 hour fast was required prior to all blood collections for clinical laboratory analyses. The sequence of starting breakfast and dinner on each dosing day during confinement was maintained to the minute such that the time intervals relative to dosing were the same among all subjects.
# Blood samples (7 mL) were collected for serum ethinyl estradiol concentrations at the following times relative to the dose on Day 1 and Day 29: prior to (0 h) and at 0.5, 1, 2, 3, 4, 6, 8, 10, 12, 18, 24, 30, 36, and 48 h post-dose. […] All plasma and serum samples were packed with dry ice and shipped to the analytical sites.
# Analysis of serum samples for determination of ethinyl estradiol was performed at Pharmaco LSR, Richmond, Va. Ethinylestradiol serum concentrations were determined using a gas chromatography/mass spectrometry (GC/MS) method. 17α-ethinylestradiol and its corresponding isotopically labeled internal standard were isolated from human serum by buffering the serum to pH 8.6 and then extracting with an ethyl ether/methylene chloride mixture. The organic layer was exchanged into aqueous base, washed with hexane and then acidified and extracted with methylene chloride. The extract was dried with sodium carbonate, evaporated and derivatized. The derivatized extract was stored at −20° C. until analysis. Analysis was by capillary GC/MS using negative chemical ionization with selected ion monitoring. This method has been validated over 17α-ethinylestradiol concentrations ranging from 2.00 to 256 pg/mL for a 1.0 mL serum volume, with a minimum quantitation limit of 2.00 pg/mL.
# Ethinylestradiol pharmacokinetic parameters were estimated following two single doses, on Day 1 and Day 29, using noncompartmental methods. The pharmacokinetic parameters were calculated using the intended sampling times; all samples were collected within 10% of intended sampling times. Maximal plasma concentration (Cmax,) and time to reach Cmax (Tmax) were obtained directly from individual concentration vs. time profiles. […]
# [2] = system: bilirubin conjugation in human microsomes; details: in vitro system of human microsomes; cited from earlier work
# [3] = molecular target: T1, UGT1A1 isoform (Homo sapiens, UniProt P22309); details: human cells transfected with the UGT1A1 isoform; cited from earlier work
# T1 sequence (P22309 26-533): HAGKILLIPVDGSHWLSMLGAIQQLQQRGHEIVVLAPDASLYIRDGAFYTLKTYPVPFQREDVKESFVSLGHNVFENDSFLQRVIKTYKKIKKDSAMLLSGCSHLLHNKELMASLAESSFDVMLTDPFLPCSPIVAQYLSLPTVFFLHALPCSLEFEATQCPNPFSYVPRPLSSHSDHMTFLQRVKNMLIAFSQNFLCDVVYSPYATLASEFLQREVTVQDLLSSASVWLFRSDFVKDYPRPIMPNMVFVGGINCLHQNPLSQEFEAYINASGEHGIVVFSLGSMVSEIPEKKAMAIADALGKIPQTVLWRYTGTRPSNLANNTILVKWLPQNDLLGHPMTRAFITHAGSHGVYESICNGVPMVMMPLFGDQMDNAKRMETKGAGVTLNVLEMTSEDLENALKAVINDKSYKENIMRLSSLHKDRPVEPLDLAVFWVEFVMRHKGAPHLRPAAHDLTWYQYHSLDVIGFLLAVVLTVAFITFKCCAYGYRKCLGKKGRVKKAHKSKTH
# [4] = system: bilirubin-conjugating activity; details: indinavir treatment; cited from earlier work
# [5] = system: UDP-glucuronosyltransferase 1 family, member 1; test: Rat liver microarray (Affymetrix Rat U34), induction of probe sequences by ritonavir; format: in vivo, Sprague-Dawley rats; details: 3-Day Studies
# [6] = system: 3-methylcholanthrene-inducible UDP-glucuronosyltransferase; test: as above; format: in vivo, Sprague-Dawley rats; details: 3-Day Studies, probe sequence 4 of 5, rat liver
# [7] = system: UDP-glucuronosyltransferase 1A (UGT1A); test: Rat liver microarray, all 5 UGT1A probe sets; format: in vivo, Sprague-Dawley rats; details: rats, dose levels of 100 mg/kg and higher, after 1 and 3 days of treatment
# [8] = system: UDP glucuronosyltransferase, exon 1.; test: Rat liver microarray (Affymetrix Rat U34), induction of probe sequences by ritonavir; details: 3-Day Studies, probe sequence 5 of 5, rat liver
# [9] = system: UGT1A1; test: Hepatic 17α-ethinylestradiol glucuronidation activity in liver microsomes of treated rats; details: both male and female rats
# [10] = female, human, serum, po, 50 μg
structure (smiles),measurement,setting,value
"C#C[C@]1(O)CC[C@H]2[C@@H]3CCc4cc(O)ccc4[C@H]3CC[C@@]21C [Ethinylestradiol, 17α-ethinylestradiol]",t1/2,"[1]; alone Day 1, with ritonavir 500 mg q12h Day 29",17.0 h
same,t1/2,"[1]; alone Day 1, with ritonavir 500 mg q12h Day 29, listed as ethinyl estradiol",17.0 h
same,half-life,"[1]; female, human, serum, oral, 500 mg",17 h
same,AUC(0-inf),[1]; [10],1.67 ± 0.377 ng·h/mL
same,Cmax,[1]; [10],0.104 ± 0.024 ng/mL
same,Tmax,"[1]; female, human, serum, po, 50 μg, serum ethinylestradiol after single oral contraceptive dose (50 μg), Mean ± SD, n = 23, alone Day 1, with ritonavir 500 mg q12h Day 29",~4 h
COC(=O)N[C@H](C(=O)N[C@@H](Cc1ccccc1)[C@@H](O)CN(Cc1ccc(-c2ccccn2)cc1)NC(=O)[C@@H](NC(=O)OC)C(C)(C)C)C(C)(C)C [atazanavir],inhibition of bilirubin conjugation,[2],micromolar range
same,inhibition of bilirubin conjugation,[3],micromolar range
CC(C)(C)NC(=O)[C@@H]1CN(Cc2cccnc2)CCN1C[C@@H](O)C[C@@H](Cc1ccccc1)C(=O)N[C@H]1c2ccccc2C[C@H]1O [indinavir],cause of elevations in serum-unconjugated bilirubin,[4],direct inhibition of bilirubin-conjugating activity
CC(C)c1nc(CN(C)C(=O)N[C@H](C(=O)N[C@@H](Cc2ccccc2)C[C@H](O)[C@H](Cc2ccccc2)NC(=O)OCc2cncs2)C(C)C)cs1 [ritonavir],"Fold change, UDP-glucuronosyltransferase 1 family, member 1","[5]; 75 mg/kg, probe sequence 1 of 5, rat liver",1.56
same,"Fold change, UDP-glucuronosyltransferase 1 family, member 1","[5]; 75 mg/kg, probe sequence 2 of 5, rat liver",1.38
same,"Fold change, UDP-glucuronosyltransferase 1 family, member 1","[5]; 75 mg/kg, probe sequence 3 of 5, rat liver",1.57
same,"Fold change, UDP-glucuronosyltransferase 1 family, member 1","[5]; 100 mg/kg, probe sequence 1 of 5, rat liver",1.67
same,"Fold change, UDP-glucuronosyltransferase 1 family, member 1","[5]; 100 mg/kg, probe sequence 2 of 5, rat liver",1.46
same,"Fold change, UDP-glucuronosyltransferase 1 family, member 1","[5]; 100 mg/kg, probe sequence 3 of 5, rat liver",1.61
same,"Fold change, UDP-glucuronosyltransferase 1 family, member 1","[5]; 125 mg/kg, probe sequence 1 of 5, rat liver",1.54
same,"Fold change, UDP-glucuronosyltransferase 1 family, member 1","[5]; 125 mg/kg, probe sequence 2 of 5, rat liver",1.42
same,"Fold change, UDP-glucuronosyltransferase 1 family, member 1","[5]; 125 mg/kg, probe sequence 3 of 5, rat liver",1.65
same,"Fold change, 3-methylcholanthrene-inducible UDP-glucuronosyltransferase",[6]; 75 mg/kg,1.97
same,"Fold change, 3-methylcholanthrene-inducible UDP-glucuronosyltransferase",[6]; 100 mg/kg,2.26
same,"Fold change, 3-methylcholanthrene-inducible UDP-glucuronosyltransferase",[6]; 125 mg/kg,2.25
same,UGT1A levels for all probe sets,[7],consistent increase
same,"Fold change, UDP glucuronosyltransferase, exon 1.",[8]; 100 mg/kg,3.96
same,"Fold change, UDP glucuronosyltransferase, exon 1.",[8]; 125 mg/kg,5.06
same,"effect on glucuronidation of 17α-ethinylestradiol, a UGT1A1 substrate",[9],significantly increase
